Measurements as given in patent publication US20120010173A1 (SEPS PHARMA N.V., priority 2009, published 2012).

Legend:
Assay type in all cases: physicochemical
[1] = Chemical stability in pharmaceutical solvents (weight % remaining in solution, LCMS)
Experimental: (§1) Table 4 provides the chemical stability data in some pharmaceutical solvents, expressed as the weight percentage (% w/w) of the final fosfluconazole derivative produced and characterized in example 1 that remained in solution after a certain period of time. The test was carried out twice, and the remaining weight % was determined by Liquid Chromatography-Mass Spectrometry (LCMS).
as §1, with “5” for “4”, “solvents at 25° C.,” for “solvents,”, “2” for “1”
as §1, with “6” for “4”, “solvents at 25° C.,” for “solvents,”, “3” for “1”
as §1, with “7” for “4”, “4” for “1”
as §1, with “8” for “4”, “5” for “1”
as §1, with “9” for “4”, “6” for “1”
as §1, with “10” for “4”, “14” for “1”

[2] = Solubility of fosfluconazole derivatives in pharmaceutical solvents (Table 2)
Experimental: The solubility determination method used was as follows: a suspension of 6 mg of the tested fosfluconazole derivative in 500 μl of the applicable pharmaceutical solvent was rotatively shaken for 24 hours at 800 rpm at 25° C. The saturated fosfluconazole derivative solution was filtered (0.45 μm) and 150 μl of the filtrate was diluted in dimethylsulfoxide (50 μl DMSO). This solution was assayed, each assay being carried out in three-fold, by measurement with Liquid Chromatography-Mass Spectrometry (LCMS, 1 μl and 10 μl injection). Standards were prepared by dissolving the corresponding fosfluconazole derivative in DMSO (1 mg/ml). To determine the solubility, four aliquots (0.5, 1, 2, 4 μl) of the standard solution were injected using the same LCMS conditions as for the above exemplary samples.

[3] = Solubility in pharmaceutical solvents (Table 3); details: for calculated fluconazole concentration: value within brackets
Description: The values within brackets in Table 3 correspond to the calculated fluconazole concentrations taking into account the molecular weights of the relevant fosfluconazole prodrug and fluconazole itself.

2-((2-(2,4-difluorophenyl)-1,3-di(1H-1,2,4-triazol-1-yl)propan-2-yloxy)(ethoxy)phosphoryloxy)ethyl (3S,8R,9S,10R,13S,14S,17R)-10,13,17-trimethyl-17-((R)-6-methylheptan-2-yl)-2,3,4,7,8,9,10,11,12,13,14,15,16,17-tetradecahydro-1H-cyclopenta[a]phenanthren-3-yl succinate [Example 6]
100.0 % w/w: weight percentage that remained in solution ([1]; H2O (pH = 7), 2 hours) | weight percentage that remained in solution ([1]; H2O (pH = 7), 4 hours) | weight percentage that remained in solution ([1]; H2O (pH = 7), 1 day) | weight percentage that remained in solution ([1]; H2O (pH = 7), 2 days) | weight percentage that remained in solution ([1]; H2O (pH = 7), 7 days) | weight percentage that remained in solution ([1]; H2O (pH = 7), 14 days) | weight percentage that remained in solution ([1]; H2O (pH = 10), 2 hours) | weight percentage that remained in solution ([1]; H2O (pH = 10), 4 hours) | weight percentage that remained in solution ([1]; H2O (pH = 10), 1 day) | weight percentage that remained in solution ([1]; H2O (pH = 10), 2 days) | weight percentage that remained in solution ([1]; H2O (pH = 10), 7 days) | weight percentage that remained in solution ([1]; H2O (pH = 10), 14 days) | weight percentage that remained in solution ([1]; PEG 400, 2 hours) | weight percentage that remained in solution ([1]; PEG 400, 4 hours) | weight percentage that remained in solution ([1]; PEG 400, 1 day) | weight percentage that remained in solution ([1]; PEG 400, 2 days) | weight percentage that remained in solution ([1]; PEG 400, 7 days) | weight percentage that remained in solution ([1]; PEG 400, 14 days)
200.0: solubility ([3]; Miglyol 812)
98.4 % w/w: weight percentage that remained in solution ([1]; H2O (pH = 2), 2 hours)
86.7 % w/w: weight percentage that remained in solution ([1]; H2O/Kleptose HPB (60/40), 2 hours) | weight percentage that remained in solution ([1]; H2O/Kleptose HPB (60/40), 4 hours) | weight percentage that remained in solution ([1]; H2O/Kleptose HPB (60/40), 1 day) | weight percentage that remained in solution ([1]; H2O/Kleptose HPB (60/40), 2 days) | weight percentage that remained in solution ([1]; H2O/Kleptose HPB (60/40), 7 days) | weight percentage that remained in solution ([1]; H2O/Kleptose HPB (60/40), 14 days)
(7.7): calculated fluconazole concentration ([3]; Sesame oil (LCT))
23.3: solubility ([3]; Sesame oil (LCT))
46.4 % w/w: weight percentage that remained in solution ([1]; H2O (pH = 2), 2 days)
600 µg/mL: solubility ([2]; H2O/Kleptose HPB (60/40), 25° C.)
0.0 % w/w: weight percentage that remained in solution ([1]; H2O (pH = 2), 7 days) | weight percentage that remained in solution ([1]; H2O (pH = 2), 14 days)
>10000 µg/mL: solubility ([2]; H2O/polysorbate 80 (80/20), 25° C.) | solubility ([2]; Miglyol 812, 25° C.) | solubility ([2]; PEG 400, 25° C.)
(74.8): calculated fluconazole concentration ([3]; Benzylalcohol) | calculated fluconazole concentration ([3]; Benzylbenzoate) | calculated fluconazole concentration ([3]; Ethylbenzoate) | calculated fluconazole concentration ([3]; N-methylpyrrolidone)
≥ 226.7: solubility ([3]; Benzylalcohol) | solubility ([3]; Benzylbenzoate) | solubility ([3]; Ethylbenzoate) | solubility ([3]; N-methylpyrrolidone)
<1 µg/mL: solubility ([2]; H2O (pH = 2), 25° C.) | solubility ([2]; H2O (pH = 7), 25° C.) | solubility ([2]; H2O (pH = 10), 25° C.) | solubility ([2]; H2O/Cremophor RH 40 (80/20), 25° C.)
55.3 % w/w: weight percentage that remained in solution ([1]; H2O (pH = 2), 1 day)
(66.0): calculated fluconazole concentration ([3]; Miglyol 812)
44.0 % w/w: weight percentage that remained in solution ([1]; H2O (pH = 2), 4 hours)
6200 µg/mL: solubility ([2]; H2O/Vitamin E TPGS (90/10), 25° C.)
